# Reference: patent US8044100B2, “Methods and compositions for treating amyloid-related diseases” (Bellus Health Inc., priority 2004, dated 2011)
# Key:
# [1] = test system: amyloid plaques in the brains of TgCRND8 mice; test: ThioS histology of brain sections of TgCRND8 mice: number of plaques and area occupied; assay type: in vivo, mouse; details: for Change in Plaque Area / Change in Plaque Number: 16 wks, ThioS
# Procedure: For the ThioS studies, the plaques in the brains of the mice were quantified as follows. Mice were transcardially perfused with saline solution. Brains were dissected out and separated in 2 hemispheres. The left hemisphere was immersed in freshly-prepared 4% paraformaldehyde for 3 hrs at 4° C., then transfered into 30% sucrose at 4° C. When cryoprotection was achieved (24-48 hours), brains were frozen in isopentane at −45° C. and subsequently stored at −80° C. until sectioning. Coronal 40 μm-thick sections were performed, and stained with thioflavin S (1% solution in water) for 8 min. After differentiation of the thioflavin S staining, sections were counterstained with hematoxylin for 5 minutes. Two sets of pictures were captured simultaneously. A first set of pictures was captured under brightfield illumination to obtain morphological details of the section; a second set of pictures was captured under a green, specific, fluorescent filter (fluorescein filter, Ex 495 nm, Em 525 nm). Image analysis to quantify the number of plaques and the area occupied by these plaques was performed using Image Pro Plus software (Media Cybernetics, MD, USA).
# Increases in the areas and numbers of plaques are indicated using “+” symbols, while decreases in the areas and numbers of the plaques are indicated using “−” symbols.
# Specifically, increases in the areas and numbers of plaques (relative to vehicle treated control) of 10 to 19.99% are scored as “+”. Decreases in the areas and numbers of plaques of 10 to 19.99% are scored as “−”. Additionally, changes of 9.99% or less in either direction are scored as “0”.
# [2] = test system: Aβ peptides (Aβ40, Aβ42) in the plasma and brain of TgCRND8 mice; test: Short term treatment (14 or 28 days) in TgCRND8 mice: Aβ levels in plasma and brain by ELISA; assay type: in vivo, mouse; details: for Aβ40 Change Insoluble / Aβ42 Change Insoluble / Aβ42 Change Soluble / Aβ40 Change Soluble: brain homogenate; for Aβ42 Change / Aβ40 Change: plasma;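 as to Aβ40 Change Insoluble: symbols grade percent change in Aβ versus untreated control with plus for increase and minus for decrease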;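 as to Aβ40 Change Soluble: symbols grade percent change in Aβ versus untreated control with plus for increase and minus for decrease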;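 as to Aβ42 Change Insoluble: symbols grade percent change in Aβ versus untreated control with plus for increase and minus for decrease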
# Procedure: The short term therapeutic effect of 19 compounds of the invention was studied. These compounds were administered over a 14 or 28 day period at the end of which the levels of Aβ peptides in the plasma and brain of TgCRND8 animals were determined.
# Male and female transgenic mice from the 3rd and 4th B6C3F1 generations were used in this example and given daily subcutaneous or oral administrations of one of a series of compounds for 14 or 28 days. The following abbreviations are used to designate these animals from the 3rd and 4th generation backcross in the present protocol: TgCRND8-2.B6C3F1(N3); TgCRND8-2.B6C3F1 (N4).
# Baseline animals (Group 1) consisted of naive TgCRND8-2. B6C3F1(N3) at 11±1 weeks of age. These mice were used to determine the Aβ levels in the plasma and brain of naive transgenic animals at the initiation of treatment.
# Starting at 11 weeks of age (±1 week) animals received daily administration of their respective treatment for a period of 14 or 28 days (groups 2-21), at a dose of 250 mg/kg at 10 ml/kg or of vehicle only (water; group 2) or 1% methyl cellulose only (group 21). The route of administration was subcutaneous for water-soluble compounds and oral for compounds solubilized in methylcellulose 1%. (MC 1%). At the end of the treatment periods, plasma and perfused brains were collected for quantification of Aβ levels.
# At 11±1 weeks of age for the Baseline group, and at the end of the treatment period (14 or 28 days) for Groups 2 to 21, at 24 hours after the last compound administration animals were sacrificed and samples collected. An approximate blood volume of 500 μl was collected from the orbital sinus and kept on ice until centrifugation at 4° C. at a minimum speed of 3,000 rpm for 10 minutes. Plasma samples were immediately frozen and stored at −80° C. pending analysis. The brains were removed, frozen, and stored at −80° C. awaiting analysis.
# Brains were weighted frozen and homogenized with 4 volumes of ice cold 50 mM Tris-Cl pH 8.0 buffer with protease inhibitor cocktail (4 mL of buffer for 1 g of wet brain). Samples were spun at 15000 g for 20 minutes and the supernatants were transferred to fresh tubes. One hundred fifty (150) μl from each supernatant were mixed with 250 μl of 8M guanidine-HCL/50 mM Tris-HCL pH 8.0 (ratio of 0.6 vol supernatant:1 vol 8M guanidium/Tris-HCL 50 mM pH8.0) and 400 μL 5 M guanidium/Tris-HCL 50 mM pH8.0 were added. The tubes were vortexed for 30 seconds and frozen at −80° C. In parallel, pellets were treated with 7 volumes of 5 M guanidine-HCL/50 mM Tris-HCL pH 8.0 (7 mL of guanidine for 1 g of wet brain), vortexed for 30 seconds and frozen at −80° C. Samples were thawed at room temperature, sonicated at 80° C. for 15 minutes and frozen again. This cycle was repeated 3 times to ensure homogeneity and samples were returned to −80° C. pending analysis.
# Aβ levels were evaluated in plasma and brain samples by ELISA using Human Aβ40 and Aβ42 Fluorometric ELISA kits from Biosource (Cat. No. 89-344 and 89-348) according to manufacturer's recommended procedures. In short, samples were thawed at room temperature, sonicated for 5 minutes at 80° C. (sonication for brain homogenates; no sonication for plasma samples) and kept on ice. Aβ peptides were captured using 100 μl of the diluted samples to the plate and incubated without shaking at 4° C. overnight. The samples were aspirated and the wells were rinsed 4 times with wash buffer obtained from the Biosource ELISA kit. The anti-Aβ40 or anti-Aβ42 rabbit polyclonal antiserum (specific for the Aβ40 or Aβ42 peptide) was added (100 μl) and the plate was incubated at room temperature for 2 hours with shaking. The wells were aspirated and washed 4 times before adding 100 μl of the alkaline phosphatase labeled anti-rabbit antibody and incubating at room temperature for 2 hours with shaking. The plates were then rinsed 5 times and the fluorescent substrate (100 μl) was added to the plate. […]
# [3] = Day 14, methylcellulose group, daily oral
# [4] = Day 28, methylcellulose group, daily oral
# [5] = 30 mg/kg, ThioS staining of brain sections, preliminary
# [6] = Day 14, vehicle group, 250 mg/kg daily
# [7] = Day 28, vehicle group, 250 mg/kg daily
# [8] = Day 14, vehicle (water) group, 250 mg/kg daily subcutaneous
compound,measurement,setting,value
O=S(=O)(O)CCCNC12CC3CC(CC(C3)C1)C2 [BW],Change in Plaque Area,[1]; 30 mg/kg,0 (changes of 9.99% or less in either direction)
same,Change in Plaque Number,[1]; 30 mg/kg,0 (changes of 9.99% or less in either direction)
same,Change in Plaque Area,[1]; 100 mg/kg,0 (changes of 9.99% or less in either direction)
same,Change in Plaque Number,[1]; 100 mg/kg,− (Decreases in the areas and numbers of plaques of 10 to 19.99%)
same,Aβ40 Change Insoluble,[2]; [3],−−− (decreases of 39% or more)
same,Aβ42 Change Insoluble,[2]; [3],−−− (decreases of 39% or more)
same,Aβ42 Change Soluble,[2]; [3],−− (decreases of 20 to 38%)
same,Aβ40 Change Insoluble,[2]; [4],− (Decreases in the levels of Aβ of 5 to 19%)
same,Aβ40 Change Soluble,[2]; [4],− (Decreases in the levels of Aβ of 5 to 19%)
same,Aβ42 Change Insoluble,[2]; [4],−− (decreases of 20 to 38%)
same,Aβ42 Change Soluble,[2]; [4],− (Decreases in the levels of Aβ of 5 to 19%)
same,Aβ42 Change,[2]; [4],+ (increases in the levels of Aβ (relative to untreated control) of 20 to 39%)
"CC(C)(C)NCCCS(=O)(=O)O [BX, 3-(t-butyl)amino-1-propanesulfonic acid]",Change in Plaque Area,[1]; 30 mg/kg,− (Decreases in the areas and numbers of plaques of 10 to 19.99%)
same,Change in Plaque Number,[1]; 30 mg/kg,− (Decreases in the areas and numbers of plaques of 10 to 19.99%)
same,area occupied by the plaques,[1]; [5],decreased
same,number of plaques,[1]; [5],decreased
same,Change in Plaque Area,[1]; 100 mg/kg,+ (increases in the areas and numbers of plaques (relative to vehicle treated control) of 10 to 19.99%)
same,Change in Plaque Number,[1]; 100 mg/kg,0 (changes of 9.99% or less in either direction)
same,levels of Aβ peptides in the plasma,[2]; after 14 and 28 days of treatment,significant increase
same,Aβ40 Change Insoluble,[2]; [6],−−− (decreases of 39% or more)
same,Aβ40 Change Soluble,[2]; [6],− (Decreases in the levels of Aβ of 5 to 19%)
same,Aβ42 Change Insoluble,[2]; [6],−−− (decreases of 39% or more)
same,Aβ42 Change Soluble,[2]; [6],−− (decreases of 20 to 38%)
same,Aβ40 Change Insoluble,[2]; [7],−−− (decreases of 39% or more)
same,Aβ40 Change Soluble,[2]; [7],−−− (decreases of 39% or more)
same,Aβ42 Change Insoluble,[2]; [7],− (Decreases in the levels of Aβ of 5 to 19%)
same,Aβ42 Change Soluble,[2]; [7],−− (decreases of 20 to 38%)
same,Aβ40 Change,[2]; [8],+++ (increases of 70% or higher)
same,Aβ42 Change,[2]; [8],++ (increases of 40 to 69%)
same,Aβ40 Change,"[2]; Day 28, vehicle (water) group, 250 mg/kg daily subcutaneous",+++ (increases of 70% or higher)
